Data: patent US20250367138A1 (Novocure GmbH, priority 2024, published 2025)

Tests used:
[1] = test system: GBM cell lines U251, LN229, and U87; assay: Live cell count of GBM cell lines treated with MGO and TTFields (Inovitro system); assay type: cell-based
Text: At the experimental endpoint cells were visualized by microscopy, counted, and taken for protein or RNA extraction for further analysis.
GBM cell lines U251, LN229, and U87 were used in this Example. […] The Inovitro™ system was operated with low intensity (1-3 V/cm) and medium frequency (200 kHz) alternating electric fields, which have a selective antimitotic effect on cancer cells. […] In addition, the arrangement of alpha and gamma tubulin was visualised by immunofluorescence.
The results of each experiment are indicated as cell count (live cells).

[2] = test system: GBM cells; assay: Preliminary work: MGO-induced glycation and invasion of GBM cells; assay type: cell-based
Text: Glioblastoma (GBM) is a highly aggressive and invasive brain tumor.

Q: What does the source list for `CC(=O)C=O` [MGO, methylglyoxal]?
A: proliferation of cells (cell count) ([1]; 0.1 mM MGO alone, FIG. 2): increased proliferation; effect of TTFields on proliferation of cells under MGO ([1]; 0.1 mM MGO plus TTFields (200 kHz, 1-3 V/cm), FIG. 2): reduce the increased proliferation; rate of apoptosis with additional TTFields ([1]; 0.3 mM MGO over the entire period plus TTFields (200 kHz, 1-3 V/cm)): enhanced; rate of apoptosis ([1]; 0.3 mM MGO over the entire period, alone, FIGS. 3-4): increased rate of apoptosis; combination effect of concomitant TTFields and MGO (live cell count) ([1]; Example 2, experiments A-H: 0.1 or 0.3 mmol/L MGO, TTFields 24-72 h, U251, LN229, U87, FIGS. 5-12): synergistic effect; glycation of cell surface proteins [2]: induces glycation of cell surface proteins; invasion / phenotype ([2]; associated with MGO-induced glycation): increased invasion
